# Laboratory results reported in the supplement of paper PMC10307832.
# Experiments:
# Test in all cases: relative viability (nuclei count vs DMSO), 5 days (fraction); higher = more cells survive
# COR-L23 = test system: COR-L23
# In short: (§1)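 Each reported value is a median over duplicate plates. It expresses relative viability: treated-well nuclei count divided by vehicle-well nuclei count. Lung cancer cell lines in 1536-well plates were dosed by pin tool a day after seeding, alone with one drug or with a fixed anchor-drug dose plus five library-drug doses (not always all listed) in √10 steps, and nuclei were counted after 5 days.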
# COR-L 105 = test system: COR-L 105
# In short: as §1
# NCI-H596 = test system: NCI-H596
# In short: as §1
# LCLC-103H = test system: LCLC-103H
# In short: as §1
# NCI-H1651 = test system: NCI-H1651
# In short: as §1
# SK-MES-1 = test system: SK-MES-1
# In short: as §1
# NCI-H1975 = test system: NCI-H1975
# In short: as §1
# PC-14 = test system: PC-14
# In short: as §1
# NCI-H2023 = test system: NCI-H2023
# In short: as §1
# NCI-H650 = test system: NCI-H650
# In short: as §1
# EPLC-272H = test system: EPLC-272H
# In short: as §1
# NCI-H1395 = test system: NCI-H1395
# In short: as §1
# CAL-12T = test system: CAL-12T
# In short: as §1
# NCI-H1993 = test system: NCI-H1993
# In short: as §1
# NCI-H2170 = test system: NCI-H2170
# In short: as §1
# HOP-62 = test system: HOP-62
# In short: as §1
# NCI-H2085 = test system: NCI-H2085
# In short: as §1
# A-427 = test system: A-427
# In short: as §1
# LXF-289 = test system: LXF-289
# In short: as §1
# NCI-H3122 = test system: NCI-H3122
# In short: as §1
# NCI-H2087 = test system: NCI-H2087
# In short: as §1
# NCI-H647 = test system: NCI-H647
# In short: as §1
# RERF-LC-KJ = test system: RERF-LC-KJ
# In short: as §1
structure (smiles),measurement,setting,value
O=c1[nH]c2ccccc2n1C1CCN(CCCC(c2ccc(F)cc2)c2ccc(F)cc2)CC1 [Pimozide] + Cc1cc(Nc2cc(N3CCN(C)CC3)nc(Sc3ccc(NC(=O)C4CC4)cc3)n2)n[nH]1 [Tozasertib] (partner 0.1 µM),relative viability,COR-L23; first compound 0.08 µM,0.194
same,relative viability,COR-L23; first compound 0.253 µM,0.183
same,relative viability,COR-L23; first compound 0.8 µM,0.191
same,relative viability,COR-L23; first compound 2.53 µM,0.153
same,relative viability,COR-L23; first compound 8 µM,0.185
same,relative viability,COR-L 105; first compound 0.253 µM,0.327
same,relative viability,COR-L 105; first compound 0.8 µM,0.367
same,relative viability,COR-L 105; first compound 2.53 µM,0.301
same,relative viability,COR-L 105; first compound 8 µM,0.239
same,relative viability,NCI-H596; first compound 0.08 µM,0.929
same,relative viability,NCI-H596; first compound 0.253 µM,0.959
same,relative viability,NCI-H596; first compound 0.8 µM,0.893
same,relative viability,NCI-H596; first compound 2.53 µM,0.839
same,relative viability,NCI-H596; first compound 8 µM,0.882
same,relative viability,LCLC-103H; first compound 0.08 µM,0.353
same,relative viability,LCLC-103H; first compound 0.253 µM,0.409
same,relative viability,LCLC-103H; first compound 0.8 µM,0.361
same,relative viability,LCLC-103H; first compound 2.53 µM,0.422
same,relative viability,LCLC-103H; first compound 8 µM,0.446
same,relative viability,NCI-H1651; first compound 0.08 µM,0.618
same,relative viability,NCI-H1651; first compound 0.253 µM,0.697
same,relative viability,NCI-H1651; first compound 0.8 µM,0.655
same,relative viability,NCI-H1651; first compound 2.53 µM,0.611
same,relative viability,NCI-H1651; first compound 8 µM,0.567
same,relative viability,SK-MES-1; first compound 0.08 µM,0.821
same,relative viability,SK-MES-1; first compound 0.253 µM,0.822
same,relative viability,SK-MES-1; first compound 0.8 µM,0.873
same,relative viability,SK-MES-1; first compound 2.53 µM,0.824
same,relative viability,SK-MES-1; first compound 8 µM,0.815
same,relative viability,NCI-H1975; first compound 0.08 µM,0.766
same,relative viability,NCI-H1975; first compound 0.253 µM,0.67
same,relative viability,NCI-H1975; first compound 0.8 µM,0.717
same,relative viability,NCI-H1975; first compound 2.53 µM,0.618
same,relative viability,NCI-H1975; first compound 8 µM,0.714
same,relative viability,PC-14; first compound 0.253 µM,0.539
same,relative viability,PC-14; first compound 0.8 µM,0.481
same,relative viability,PC-14; first compound 2.53 µM,0.519
same,relative viability,PC-14; first compound 8 µM,0.552
same,relative viability,NCI-H2023; first compound 0.08 µM,0.352
same,relative viability,NCI-H2023; first compound 0.253 µM,0.314
same,relative viability,NCI-H2023; first compound 0.8 µM,0.454
same,relative viability,NCI-H2023; first compound 2.53 µM,0.228
same,relative viability,NCI-H2023; first compound 8 µM,0.237
same,relative viability,NCI-H650; first compound 0.08 µM,0.758
same,relative viability,NCI-H650; first compound 0.253 µM,0.702
same,relative viability,NCI-H650; first compound 0.8 µM,0.662
same,relative viability,NCI-H650; first compound 2.53 µM,0.698
same,relative viability,NCI-H650; first compound 8 µM,0.782
same,relative viability,EPLC-272H; first compound 0.08 µM,0.193
same,relative viability,EPLC-272H; first compound 0.253 µM,0.241
same,relative viability,EPLC-272H; first compound 0.8 µM,0.33
same,relative viability,EPLC-272H; first compound 2.53 µM,0.176
same,relative viability,EPLC-272H; first compound 8 µM,0.189
same,relative viability,NCI-H1395; first compound 0.08 µM,0.846
same,relative viability,NCI-H1395; first compound 0.253 µM,0.8
same,relative viability,NCI-H1395; first compound 0.8 µM,0.617
same,relative viability,NCI-H1395; first compound 2.53 µM,0.716
same,relative viability,NCI-H1395; first compound 8 µM,0.676
same,relative viability,CAL-12T; first compound 0.08 µM,0.308
same,relative viability,CAL-12T; first compound 0.253 µM,0.312
same,relative viability,CAL-12T; first compound 0.8 µM,0.308
same,relative viability,CAL-12T; first compound 2.53 µM,0.318
same,relative viability,CAL-12T; first compound 8 µM,0.427
same,relative viability,NCI-H1993; first compound 0.08 µM,0.555
same,relative viability,NCI-H1993; first compound 0.253 µM,0.567
same,relative viability,NCI-H1993; first compound 0.8 µM,0.612
same,relative viability,NCI-H1993; first compound 2.53 µM,0.568
same,relative viability,NCI-H1993; first compound 8 µM,0.58
same,relative viability,NCI-H2170; first compound 0.08 µM,0.752
same,relative viability,NCI-H2170; first compound 0.253 µM,0.734
same,relative viability,NCI-H2170; first compound 0.8 µM,0.651
same,relative viability,NCI-H2170; first compound 2.53 µM,0.653
same,relative viability,NCI-H2170; first compound 8 µM,0.55
same,relative viability,HOP-62; first compound 0.08 µM,0.344
same,relative viability,HOP-62; first compound 0.253 µM,0.353
same,relative viability,HOP-62; first compound 2.53 µM,0.331
same,relative viability,HOP-62; first compound 8 µM,0.321
same,relative viability,NCI-H2085; first compound 0.08 µM,0.793
same,relative viability,NCI-H2085; first compound 0.253 µM,0.82
same,relative viability,NCI-H2085; first compound 0.8 µM,0.704
same,relative viability,NCI-H2085; first compound 2.53 µM,0.844
same,relative viability,NCI-H2085; first compound 8 µM,0.736
same,relative viability,A-427; first compound 0.08 µM,0.194
same,relative viability,A-427; first compound 0.253 µM,0.189
same,relative viability,A-427; first compound 0.8 µM,0.222
same,relative viability,A-427; first compound 2.53 µM,0.16
same,relative viability,A-427; first compound 8 µM,0.208
same,relative viability,LXF-289; first compound 0.08 µM,0.208
same,relative viability,LXF-289; first compound 0.253 µM,0.167
same,relative viability,LXF-289; first compound 0.8 µM,0.173
same,relative viability,LXF-289; first compound 2.53 µM,0.14
same,relative viability,LXF-289; first compound 8 µM,0.126
same,relative viability,NCI-H3122; first compound 0.08 µM,0.397
same,relative viability,NCI-H3122; first compound 0.253 µM,0.386
same,relative viability,NCI-H3122; first compound 0.8 µM,0.353
same,relative viability,NCI-H3122; first compound 2.53 µM,0.216
same,relative viability,NCI-H3122; first compound 8 µM,0.378
same,relative viability,NCI-H2087; first compound 0.08 µM,0.262
same,relative viability,NCI-H2087; first compound 0.253 µM,0.232
same,relative viability,NCI-H2087; first compound 2.53 µM,0.233
same,relative viability,NCI-H2087; first compound 8 µM,0.195
same,relative viability,NCI-H647; first compound 0.08 µM,0.24
same,relative viability,NCI-H647; first compound 0.253 µM,0.327
same,relative viability,NCI-H647; first compound 0.8 µM,0.264
same,relative viability,NCI-H647; first compound 2.53 µM,0.221
same,relative viability,NCI-H647; first compound 8 µM,0.214
same,relative viability,RERF-LC-KJ; first compound 0.08 µM,0.468
same,relative viability,RERF-LC-KJ; first compound 0.253 µM,0.447
same,relative viability,RERF-LC-KJ; first compound 0.8 µM,0.452
same,relative viability,RERF-LC-KJ; first compound 2.53 µM,0.202
same,relative viability,RERF-LC-KJ; first compound 8 µM,0.248
